Assays:
[1] = human gut metagenome, 24 h, 2 µM
[2] = (§1) The drug is tested on WLS-098 corresponding to human gut metagenome with ENA study accession number: PRJEB37062 and ENA sample accession number: ERS12561754 for biotransformation under anaerobic condition. The drug concentrations were measured over 9 timepoints collected between 0 and 24 hours of incubation by liquid-chromatography-coupled mass spectrometry (LC–MS); conditions: 2 µM
[3] = human gut metagenome, 24 h, 2 µM; remark: listed apart in the source
[4] = as §1, with “Z-028” for “WLS-098”, “mouse” for “human”, “ERS12561827” for “ERS12561754”; conditions: 2 µM
[5] = as §1, with “WLS-010” for “WLS-098”, “ERS12561743” for “ERS12561754”; conditions: 2 µM
[6] = human gut metagenome, 24 h, 2 µM; remark: listed apart in the source
[7] = human gut metagenome, 24 h, 2 µM; remark: listed apart in the source
[8] = human gut metagenome, 24 h, 2 µM; remark: listed apart in the source
[9] = as §1, with “Z-013” for “WLS-098”, “rabbit” for “human”, “ERS12561813” for “ERS12561754”; conditions: 2 µM
[10] = human gut metagenome, 24 h, 2 µM; remark: listed apart in the source
[11] = as §1, with “Z-003” for “WLS-098”, “pig” for “human”, “ERS12561803” for “ERS12561754”; conditions: 2 µM
[12] = as §1, with “WLS-006” for “WLS-098”, “ERS12561741” for “ERS12561754”; conditions: 2 µM
[13] = human gut metagenome, 24 h, 2 µM; remark: listed apart in the source
[14] = as §1, with “Z-021” for “WLS-098”, “to” for “to human gut”, “ERS12561820” for “ERS12561754”; conditions: 2 µM
[15] = as §1, with “Z-025” for “WLS-098”, “rabbit” for “human”, “ERS12561824” for “ERS12561754”; conditions: 2 µM
[16] = as §1, with “WLS-069” for “WLS-098”, “ERS12561748” for “ERS12561754”; conditions: 2 µM
[17] = human gut metagenome, 24 h, 2 µM; remark: listed apart in the source
[18] = as §1, with “Z-020” for “WLS-098”, “rabbit” for “human”, “ERS12561819” for “ERS12561754”; conditions: 2 µM
[19] = as §1, with “Z-006” for “WLS-098”, “mouse” for “human”, “ERS12561806” for “ERS12561754”; conditions: 2 µM
[20] = human gut metagenome, 24 h, 2 µM; remark: listed apart in the source
Also: call rule not given here.

Row | Structure (SMILES) | Bacterial Biotransformation [1] | Bacterial Biotransformation [2] | Bacterial Biotransformation [3] | Bacterial Biotransformation [4] | Bacterial Biotransformation [5] | Bacterial Biotransformation [6] | Bacterial Biotransformation [7] | Bacterial Biotransformation [8] | Bacterial Biotransformation [9] | Bacterial Biotransformation [10] | Bacterial Biotransformation [11] | Bacterial Biotransformation [12] | Bacterial Biotransformation [13] | Bacterial Biotransformation [14] | Bacterial Biotransformation [15] | Bacterial Biotransformation [16] | Bacterial Biotransformation [17] | Bacterial Biotransformation [18] | Bacterial Biotransformation [19] | Bacterial Biotransformation [20]
1 | CC(C)NCC(O)c1ccc(NS(C)(=O)=O)cc1 (stereo not given) [SOTALOL] | Compound NOT metabolized | Compound NOT metabolized | Compound NOT metabolized | Compound NOT metabolized | Compound NOT metabolized | Compound NOT metabolized | Compound NOT metabolized | Compound NOT metabolized | Compound NOT metabolized | Compound NOT metabolized | Compound NOT metabolized | Compound NOT metabolized | Compound NOT metabolized | Compound NOT metabolized | Compound NOT metabolized | Compound NOT metabolized | Compound NOT metabolized | Compound NOT metabolized | Compound NOT metabolized | Compound NOT metabolized
2 | CNS(=O)(=O)Cc1ccc2[nH]cc(CCN(C)C)c2c1.O=C(O)CCC(=O)O [SUMATRIPTAN SUCCINATE] | Compound NOT metabolized | Compound metabolized | Compound NOT metabolized | Compound NOT metabolized | Compound NOT metabolized | Compound NOT metabolized | Compound NOT metabolized | Compound metabolized | Compound NOT metabolized | Compound NOT metabolized | Compound metabolized | Compound NOT metabolized | Compound NOT metabolized | Compound NOT metabolized | Compound NOT metabolized | Compound metabolized | Compound NOT metabolized | Compound NOT metabolized | Compound NOT metabolized | Compound NOT metabolized
3 | CC(CN(C)C)CN1c2ccccc2CCc2ccccc21.O=C(O)/C=C\C(=O)O (stereo not given) [TRIMIPRAMINE MALEATE] | Compound NOT metabolized | Compound metabolized | Compound metabolized | Compound NOT metabolized | Compound metabolized | Compound NOT metabolized | Compound metabolized | Compound metabolized | Compound NOT metabolized | Compound NOT metabolized | Compound metabolized | Compound metabolized | Compound metabolized | Compound NOT metabolized | Compound NOT metabolized | Compound metabolized | Compound metabolized | Compound NOT metabolized | Compound NOT metabolized | Compound metabolized
4 | CC(=O)CC(c1ccccc1)c1c(O)c2ccccc2oc1=O (stereo not given) [WARFARIN] | Compound metabolized | Compound metabolized | Compound metabolized | Compound metabolized | Compound metabolized | Compound metabolized | Compound metabolized | Compound metabolized | Compound metabolized | Compound metabolized | Compound metabolized | Compound metabolized | Compound NOT metabolized | Compound NOT metabolized | Compound metabolized | Compound metabolized | Compound metabolized | Compound metabolized | Compound metabolized | Compound metabolized

The remaining lines, values ahead:

Row | Bacterial Biotransformation [1] | Bacterial Biotransformation [2] | Bacterial Biotransformation [3] | Bacterial Biotransformation [4] | Bacterial Biotransformation [5] | Bacterial Biotransformation [6] | Bacterial Biotransformation [7] | Bacterial Biotransformation [8] | Bacterial Biotransformation [9] | Bacterial Biotransformation [10] | Bacterial Biotransformation [11] | Bacterial Biotransformation [12] | Bacterial Biotransformation [13] | Bacterial Biotransformation [14] | Bacterial Biotransformation [15] | Bacterial Biotransformation [16] | Bacterial Biotransformation [17] | Bacterial Biotransformation [18] | Bacterial Biotransformation [19] | Bacterial Biotransformation [20] | Structure (SMILES)
5 | Compound NOT metabolized | Compound metabolized | Compound NOT metabolized | Compound NOT metabolized | Compound metabolized | Compound NOT metabolized | Compound NOT metabolized | Compound metabolized | Compound NOT metabolized | Compound NOT metabolized | Compound metabolized | Compound metabolized | Compound NOT metabolized | Compound NOT metabolized | Compound NOT metabolized | Compound metabolized | Compound NOT metabolized | Compound NOT metabolized | Compound NOT metabolized | Compound metabolized | CCN1CCCC1CNC(=O)c1cc(S(N)(=O)=O)ccc1OC (stereo not given) [SULPIRIDE]
6 | Compound NOT metabolized | Compound metabolized | Compound NOT metabolized | Compound NOT metabolized | Compound NOT metabolized | Compound NOT metabolized | Compound NOT metabolized | Compound NOT metabolized | Compound NOT metabolized | Compound NOT metabolized | Compound NOT metabolized | Compound NOT metabolized | Compound NOT metabolized | Compound NOT metabolized | Compound NOT metabolized | Compound metabolized | Compound NOT metabolized | Compound NOT metabolized | Compound NOT metabolized | Compound metabolized | Nc1c2c(nc3ccccc13)CCCC2 [TACRINE]
7 | Compound NOT metabolized | Compound metabolized | Compound metabolized | Compound metabolized | Compound metabolized | Compound NOT metabolized | Compound metabolized | Compound NOT metabolized | Compound metabolized | Compound metabolized | Compound metabolized | Compound metabolized | Compound NOT metabolized | Compound metabolized | Compound metabolized | Compound metabolized | Compound metabolized | Compound NOT metabolized | Compound metabolized | Compound metabolized | Cc1ccc(S(=O)(=O)NC(=O)NN2CCCCCC2)cc1 [TOLAZAMIDE]
8 | Compound NOT metabolized | Compound metabolized | Compound metabolized | Compound NOT metabolized | Compound metabolized | Compound NOT metabolized | Compound NOT metabolized | Compound NOT metabolized | Compound NOT metabolized | Compound NOT metabolized | Compound metabolized | Compound metabolized | Compound NOT metabolized | Compound NOT metabolized | Compound NOT metabolized | Compound metabolized | Compound metabolized | Compound metabolized | Compound NOT metabolized | Compound metabolized | CCOC(=O)[C@H](CCc1ccccc1)N[C@@H](C)C(=O)N1[C@H](C(=O)O)C[C@H]2CCCC[C@@H]21 [TRANDOLAPRIL]

— ChEMBL document CHEMBL5724914, “Linking interpersonal differences in gut microbiota composition and drug biotransformation activity” (2024)
